According to PMC4770093, “The role of kinetic context in apparent biased agonism at GPCRs” (Nature Communications, 2016):
Values joined by “and” are separate entries in the source; they are usually repeats but may differ in a detail not shown here. Identical values can stand only once.

What was measured:
D2LR [1] = target: T1, D2LR (Homo sapiens, UniProt P14416); experiment: Inhibition of forskolin-induced cAMP production (BRET CAMYEL biosensor); details: for Emax cAMP: relative to the maximal response of ropinirole; for Inhibition of cAMP production measured using a CAMYEL BRET biosensor, Net BRET: single experiments n = 1, 2, 3
Description: Flp-In-CHO cells stably expressing the D2LR were seeded at a density of 2,000,000 cells per 10-cm dish and were transfected the following day using polyethylenimine as the transfection reagent. The cells were transfected with 3 μg CAMYEL, to allow the detection of cAMP levels within the cells. Twenty-four hours after transfection, the cells were plated into 96-well CulturPlates (PerkinElmer) and grown overnight. The cells were equilibrated in Hank's balanced salt solution at 37 °C (or 25 °C when indicated) before starting the experiment. The cells were co-stimulated with the agonists and 10 μM forskolin for the indicated timeframes when the BRET readings were captured. Coelenterazine (Promega) was added at a final concentration of 5 μM at least 3 min before measurement. […] Net BRET was determined by subtraction of the vehicle control co-added with 10 μM forskolin.

D2LR [2] = target: T1, D2LR; experiment: xCELLigence cellular impedance (CI) assay; format: cell-based; set-up: expressed in transfected cells; details: for Emax CI: relative to the maximal response of ropinirole
Description: Changes in CI on ligand stimulation were measured using the xCELLigence system (Roche Applied Science). The baseline cell index of each well of a 96-well E-plate was measured in the presence of growth medium before cell seeding. Cells were seeded at a density of 20,000 cells per well and grown for 16–20 h followed by 4 h serum starvation. Cells were treated with the ligands and the cell index values were obtained immediately after ligand stimulation every 15 s for a total time of 90 min. The retrieved cell index values were then normalized by dividing the cell index at the time of ligand addition followed by subtraction of the vehicle control at each time point.

D2LR [3] = target: T1, D2LR; experiment: Quantification of biased agonism between pathways (operational model, LogBias); format: cell-based; set-up: expressed in transfected cells
Source text: where Top and Bottom represent the maximal and minimal asymptote of the dose–response curve, [A] is the molar concentration of agonist and EC50 is the molar concentration of agonist required to give a response half way between bottom and top. Dose–response data were fitted to the following form of the operational model of agonism[12] to allow the quantification of biased agonism
where Em is the maximal possible response of the system, Basal is the basal level of response, KA represents the equilibrium dissociation constant of the agonist (A) and τ is an index of the signalling efficacy of the agonist that is defined as RT/KE, where RT is the total number of receptors and KE is the coupling efficiency of each agonist-occupied receptor, and n is the slope of the transducer function that links occupancy to response. The analysis assumes that the transduction machinery used for a given cellular pathway are the same for all agonists, such that the Em and transducer slope (n) are shared between agonists. Data for all compounds for each pathway were fit globally, to determine values of KA and τ. Biased agonism was quantified as previously described. […] The relative bias can then be calculated for each agonist at the two different signalling pathways by subtracting the Δlog(τ/KA) of one pathway from the other to give a ΔΔlog(τ/KA) value, which is a measure of bias. […] All affinity (pKi or pKA), potency (pEC50) and transduction ratio (log(τ/KA)) parameters were estimated as logarithms. When fold changes in bias are described, this was calculated by converting values of ΔΔlog(τ/KA) to the corresponding antilog value. […] Thus, as the application of t-tests and analyses of variance assume Gaussian distribution, estimating the parameters as logarithms allows valid statistical comparison. All results are expressed as the mean±s.e.m. As such, we performed a Brown–Forsythe test (Graphpad prism 6) to assure ourselves of equal variance when such parameters are compared.

D2LR [4] = target: T1, D2LR; experiment: Gαi1 G protein activation (BRET); format: cell-based; set-up: expressed in transfected cells; details: 5 minute timepoint
Description: G protein activation. Flp-In-CHO cells stably expressing the D2LR were seeded at a density of 2,000,000 cells per 10-cm dish and were transfected the following day using polyethylenimine as the transfection reagent. […] Twenty-four hours after transfection, the cells were plated into 96-well CulturPlates (PerkinElmer) and grown overnight. The cells were equilibrated in Hank's balanced salt solution at 37 °C before starting the experiment. The cells were stimulated with the agonists for the indicated timeframes when the BRET readings were captured. Coelenterazine (Promega) was added at a final concentration of 5 μM at least 3 min before measurement. […] Net BRET was determined by subtraction of the vehicle control from the agonist-induced response.

[5] = 5 minute timepoint, Flp-In-CHO-D2LR
[6] = 5 minute timepoint, dopamine as reference agonist

T1 sequence (P14416 whole entry): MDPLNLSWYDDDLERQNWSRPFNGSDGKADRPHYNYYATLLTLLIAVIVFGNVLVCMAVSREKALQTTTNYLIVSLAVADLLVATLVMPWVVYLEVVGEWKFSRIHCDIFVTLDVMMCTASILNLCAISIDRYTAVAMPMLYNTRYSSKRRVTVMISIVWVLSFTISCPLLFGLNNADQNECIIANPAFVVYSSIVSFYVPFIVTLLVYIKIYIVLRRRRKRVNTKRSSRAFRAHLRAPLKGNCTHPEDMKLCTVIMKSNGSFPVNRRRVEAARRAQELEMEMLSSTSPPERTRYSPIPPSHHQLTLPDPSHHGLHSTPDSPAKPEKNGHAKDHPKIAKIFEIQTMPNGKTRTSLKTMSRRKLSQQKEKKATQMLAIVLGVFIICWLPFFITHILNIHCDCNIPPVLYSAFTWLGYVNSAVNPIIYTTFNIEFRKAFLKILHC

CCCN1CCC[C@@H](c2cccc(O)c2)C1 [S-3PPP, (S)-(-)-3-(3-hydroxyphenyl)-N-propylpiperidine]
Emax cAMP (D2LR [1]; 2 min): 73 ± 1.9
Emax cAMP (D2LR [1]; 5 min): 73 ± 2.0
Log(τ/KA) cAMP (D2LR [1]; [5]): 6.65 ± 0.06
ΔLog(τ/KA) cAMP (D2LR [1]; [6]): -1.40 ± 0.08
Emax cAMP (D2LR [1]; 10 min): 70 ± 1.7
Emax cAMP (D2LR [1]; 15 min): 70 ± 1.9
Emax cAMP (D2LR [1]; 30 min): 71 ± 2.5
Emax cAMP (D2LR [1]; 45 min): 64 ± 1.4
Emax cAMP (D2LR [1]; 60 min): 53 ± 2.4
Emax cAMP (D2LR [1]; 75 min): 66 ± 1.4
Emax cAMP (D2LR [1]; 90 min): 60 ± 0.8
Inhibition of cAMP production measured using a CAMYEL BRET biosensor, Net BRET (D2LR [1]; time 2.21667 mins): 0.05465 and 0.08466 and 0.07325
Inhibition of cAMP production measured using a CAMYEL BRET biosensor, Net BRET (D2LR [1]; time 2.58333 mins): 0.05879 and 0.0813 and 0.07011
Inhibition of cAMP production measured using a CAMYEL BRET biosensor, Net BRET (D2LR [1]; time 2.95 mins): 0.05876 and 0.09107 and 0.0617
Inhibition of cAMP production measured using a CAMYEL BRET biosensor, Net BRET (D2LR [1]; time 3.31667 mins): 0.05926 and 0.0872 and 0.07317
Inhibition of cAMP production measured using a CAMYEL BRET biosensor, Net BRET (D2LR [1]; time 3.68333 mins): 0.06005 and 0.08327 and 0.07534
Inhibition of cAMP production measured using a CAMYEL BRET biosensor, Net BRET (D2LR [1]; time 4.05 mins): 0.08108 and 0.08891 and 0.07666
Inhibition of cAMP production measured using a CAMYEL BRET biosensor, Net BRET (D2LR [1]; time 4.41667 mins): 0.07291 and 0.08859 and 0.07671
Inhibition of cAMP production measured using a CAMYEL BRET biosensor, Net BRET (D2LR [1]; time 4.78333 mins): 0.08207 and 0.09068 and 0.07598
Inhibition of cAMP production measured using a CAMYEL BRET biosensor, Net BRET (D2LR [1]; time 5.15 mins): 0.088 and 0.08877 and 0.07517
Inhibition of cAMP production measured using a CAMYEL BRET biosensor, Net BRET (D2LR [1]; time 5.51667 mins): 0.08023 and 0.0868 and 0.07779
Inhibition of cAMP production measured using a CAMYEL BRET biosensor, Net BRET (D2LR [1]; time 5.88333 mins): 0.08241 and 0.08562 and 0.08229
Inhibition of cAMP production measured using a CAMYEL BRET biosensor, Net BRET (D2LR [1]; time 6.25 mins): 0.0777 and 0.08078 and 0.07833
Inhibition of cAMP production measured using a CAMYEL BRET biosensor, Net BRET (D2LR [1]; time 6.61667 mins): 0.07786 and 0.08188 and 0.07763
Inhibition of cAMP production measured using a CAMYEL BRET biosensor, Net BRET (D2LR [1]; time 6.98333 mins): 0.08463 and 0.08155 and 0.08058
Inhibition of cAMP production measured using a CAMYEL BRET biosensor, Net BRET (D2LR [1]; time 7.35 mins): 0.08243 and 0.07743 and 0.07354
Inhibition of cAMP production measured using a CAMYEL BRET biosensor, Net BRET (D2LR [1]; time 7.71667 mins): 0.08152 and 0.0852 and 0.08224
Inhibition of cAMP production measured using a CAMYEL BRET biosensor, Net BRET (D2LR [1]; time 8.08333 mins): 0.08811 and 0.08583 and 0.07638
Inhibition of cAMP production measured using a CAMYEL BRET biosensor, Net BRET (D2LR [1]; time 8.45 mins): 0.08386 and 0.08753 and 0.07171
Inhibition of cAMP production measured using a CAMYEL BRET biosensor, Net BRET (D2LR [1]; time 8.81667 mins): 0.09076 and 0.08128 and 0.08398
Inhibition of cAMP production measured using a CAMYEL BRET biosensor, Net BRET (D2LR [1]; time 9.18333 mins): 0.08865 and 0.08603 and 0.07348
Inhibition of cAMP production measured using a CAMYEL BRET biosensor, Net BRET (D2LR [1]; time 9.55 mins): 0.08292 and 0.0837 and 0.08159
Inhibition of cAMP production measured using a CAMYEL BRET biosensor, Net BRET (D2LR [1]; time 9.91667 mins): 0.09198 and 0.07873 and 0.08223
Inhibition of cAMP production measured using a CAMYEL BRET biosensor, Net BRET (D2LR [1]; time 10.2833 mins): 0.08942 and 0.08142 and 0.08126
Inhibition of cAMP production measured using a CAMYEL BRET biosensor, Net BRET (D2LR [1]; time 10.65 mins): 0.09447 and 0.08477 and 0.08651
Inhibition of cAMP production measured using a CAMYEL BRET biosensor, Net BRET (D2LR [1]; time 11.0167 mins): 0.09406 and 0.0745 and 0.08653
Inhibition of cAMP production measured using a CAMYEL BRET biosensor, Net BRET (D2LR [1]; time 11.3833 mins): 0.09952 and 0.0798 and 0.08963
Inhibition of cAMP production measured using a CAMYEL BRET biosensor, Net BRET (D2LR [1]; time 11.75 mins): 0.09797 and 0.09183 and 0.0831
Inhibition of cAMP production measured using a CAMYEL BRET biosensor, Net BRET (D2LR [1]; time 12.1167 mins): 0.0995 and 0.08775 and 0.0921
Inhibition of cAMP production measured using a CAMYEL BRET biosensor, Net BRET (D2LR [1]; time 12.4833 mins): 0.08767 and 0.08489 and 0.09746
Inhibition of cAMP production measured using a CAMYEL BRET biosensor, Net BRET (D2LR [1]; time 12.85 mins): 0.09546 and 0.09264 and 0.08756
Inhibition of cAMP production measured using a CAMYEL BRET biosensor, Net BRET (D2LR [1]; time 13.2167 mins): 0.09597 and 0.0888 and 0.1009
Inhibition of cAMP production measured using a CAMYEL BRET biosensor, Net BRET (D2LR [1]; time 13.5833 mins): 0.09698 and 0.09198 and 0.09379
Inhibition of cAMP production measured using a CAMYEL BRET biosensor, Net BRET (D2LR [1]; time 13.95 mins): 0.09269 and 0.09222 and 0.0998
Inhibition of cAMP production measured using a CAMYEL BRET biosensor, Net BRET (D2LR [1]; time 14.3167 mins): 0.1016
Emax CI (D2LR [2]; 2 min): 46 ± 3.7
Emax CI (D2LR [2]; 5 min): 46 ± 3.0
Log(τ/KA) Cellular impedance (D2LR [2]; [5]): 7.34 ± 0.10
ΔLog(τ/KA) Cellular impedance (D2LR [2]; [6]): -1.22 ± 0.11
Emax CI (D2LR [2]; 10 min): 36 ± 2.5
Emax CI (D2LR [2]; 15 min): 32 ± 2.6
Emax CI (D2LR [2]; 30 min): 26 ± 2.5
Emax CI (D2LR [2]; 45 min): 23 ± 2.5
Emax CI (D2LR [2]; 60 min): 21 ± 2.5
Emax CI (D2LR [2]; 75 min): 19 ± 2.4
Emax CI (D2LR [2]; 90 min): 17 ± 2.3
bias between the activation of Gαi1 and all other assays apart from the activation of GαoB (D2LR [3]; 5 min, reference dopamine): less than tenfold
LogBias Gαi1 – CI (D2LR [3]; [6]): 0.64 ± 0.19
LogBias Gαi1 – GαoB (D2LR [3]; [6]): 0.27 ± 0.21
LogBias Gαi1 – cAMP (D2LR [3]; [6]): 0.83 ± 0.17
LogBias GαoB – CI (D2LR [3]; [6]): 0.37 ± 0.18
LogBias GαoB – cAMP (D2LR [3]; [6]): 0.56 ± 0.16
LogBias cAMP – CI (D2LR [3]; [6]): -0.19 ± 0.13
Log(τ/KA) Gαi1 activation (D2LR [4]; Flp-In-CHO-D2LR): 6.60 ± 0.12
ΔLog(τ/KA) Gαi1 activation (D2LR [4]; dopamine as reference agonist): -0.58 ± 0.15
